Measurements as given in US12559464B2, “Quinazolinone dione compounds and uses thereof” (Edgewise Therapeutics, Inc., priority 2023, dated 2026).

How the values were obtained:
[1] = test system: myosin ATPase, Porcine Atria myofibrils; assay: Myofibril ATPase assay, porcine atria myofibrils; assay type: biochemical; details: Porcine Atria Prep pCa 25 GEOM_MEAN; for Porcine Atria EC25 (Y75 value): concentration required to reduce myosin ATP-ase activity by 25%
[2] = target: T1, myosin ATPase, Porcine Ventricle myofibrils (Sus scrofa, UniProt P79293); assay: Myofibril ATPase assay, porcine ventricle myofibrils; assay type: biochemical, porcine (Yucatan minipigs); details: concentration required to reduce myosin ATP-ase activity by 25%; Porcine Ventricle Prep pCa 25 GEOM_MEAN
T1 construct: Myofibrils from porcine cardiac muscle was isolated from the left ventricle of Yucatan minipigs; tissue Exemplar Genetics; host or cells: left ventricle of Yucatan minipigs, myofibrils
T1 sequence (P79293 whole entry): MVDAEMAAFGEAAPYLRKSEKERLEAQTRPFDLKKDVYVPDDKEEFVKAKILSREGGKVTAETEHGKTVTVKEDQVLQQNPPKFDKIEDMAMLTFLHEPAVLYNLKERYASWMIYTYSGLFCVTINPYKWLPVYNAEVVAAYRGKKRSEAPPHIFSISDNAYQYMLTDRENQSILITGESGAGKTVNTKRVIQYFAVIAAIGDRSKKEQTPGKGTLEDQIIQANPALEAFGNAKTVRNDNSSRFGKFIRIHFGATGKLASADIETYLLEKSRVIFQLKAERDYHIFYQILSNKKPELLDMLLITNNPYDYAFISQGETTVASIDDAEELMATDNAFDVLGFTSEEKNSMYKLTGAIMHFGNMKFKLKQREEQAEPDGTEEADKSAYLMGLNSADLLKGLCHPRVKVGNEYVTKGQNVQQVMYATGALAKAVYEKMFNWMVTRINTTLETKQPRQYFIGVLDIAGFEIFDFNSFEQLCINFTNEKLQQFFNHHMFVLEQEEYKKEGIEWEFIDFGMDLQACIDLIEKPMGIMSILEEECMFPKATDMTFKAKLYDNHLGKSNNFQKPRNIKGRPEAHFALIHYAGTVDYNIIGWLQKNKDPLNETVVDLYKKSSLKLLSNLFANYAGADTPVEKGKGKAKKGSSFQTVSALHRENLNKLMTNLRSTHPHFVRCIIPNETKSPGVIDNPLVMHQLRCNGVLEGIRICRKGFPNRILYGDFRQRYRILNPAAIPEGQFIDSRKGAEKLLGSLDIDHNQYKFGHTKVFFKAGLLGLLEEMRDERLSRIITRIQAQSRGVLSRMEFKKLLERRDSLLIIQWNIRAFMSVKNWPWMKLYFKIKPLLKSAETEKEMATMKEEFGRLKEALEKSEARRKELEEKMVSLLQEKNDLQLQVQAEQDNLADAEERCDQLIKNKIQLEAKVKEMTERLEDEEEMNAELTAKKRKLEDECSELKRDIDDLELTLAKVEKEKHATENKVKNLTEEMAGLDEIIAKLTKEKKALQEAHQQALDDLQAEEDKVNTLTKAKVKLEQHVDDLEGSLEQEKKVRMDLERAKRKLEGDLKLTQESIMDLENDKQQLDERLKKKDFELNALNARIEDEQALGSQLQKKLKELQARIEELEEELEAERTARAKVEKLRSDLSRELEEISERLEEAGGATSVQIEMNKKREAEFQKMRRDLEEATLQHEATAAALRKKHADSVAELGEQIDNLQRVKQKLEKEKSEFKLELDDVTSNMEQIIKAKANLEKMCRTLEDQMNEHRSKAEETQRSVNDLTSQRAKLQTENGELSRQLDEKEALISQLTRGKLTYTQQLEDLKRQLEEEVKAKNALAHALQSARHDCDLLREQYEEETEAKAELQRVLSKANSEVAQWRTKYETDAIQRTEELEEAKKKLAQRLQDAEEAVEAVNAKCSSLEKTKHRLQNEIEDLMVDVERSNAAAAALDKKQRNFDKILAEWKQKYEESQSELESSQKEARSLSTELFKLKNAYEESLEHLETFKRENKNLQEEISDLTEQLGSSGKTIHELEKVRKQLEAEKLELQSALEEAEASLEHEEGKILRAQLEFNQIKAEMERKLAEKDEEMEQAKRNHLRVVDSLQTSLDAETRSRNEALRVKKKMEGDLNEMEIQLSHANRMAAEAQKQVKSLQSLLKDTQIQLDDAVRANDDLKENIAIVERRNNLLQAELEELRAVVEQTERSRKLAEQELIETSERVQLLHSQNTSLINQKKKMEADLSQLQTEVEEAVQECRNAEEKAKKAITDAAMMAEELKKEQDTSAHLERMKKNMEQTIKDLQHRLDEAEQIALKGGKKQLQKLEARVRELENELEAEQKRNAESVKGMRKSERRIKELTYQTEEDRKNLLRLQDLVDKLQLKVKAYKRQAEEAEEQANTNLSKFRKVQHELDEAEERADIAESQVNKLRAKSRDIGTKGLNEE
Description: (§1) Myofibril ATPase assays are known in the art to be useful in evaluating small molecules for the treatment of HCM and other cardiac indications. Myosin ATPase activity is assessed by using a coupled reaction system, in which ADP generated by the myosin ATPase function is coupled to the disappearance of NADH through the pyruvate kinase/lactate dehydrogenase (PK-LDH) system. ATPase activity produces ADP, which is used as a substrate for PK to produce pyruvate and regenerate ATP. The pyruvate is then used as a substrate by LDH to oxidize NADH to NAD+. The rate of the reaction is monitored through the time-dependent disappearance of NADH using absorbance at 340 nm, which, when the couple system is in stoichiometric excess, is directly correlated to the ATPase activity of the myosin. Inhibition of ATPase activity by the assayed compounds is indicated by a reduced rate of NADH loss, relative to vehicle-treated controls, over the experimental time window. Porcine Ventricle are the primary sources of myofibril material.
(§2) Materials: The following stock solutions and reagents were used in the Myofibril ATPase Assay: Stock Solutions; PIPES, 200 mM and 120 mM in H2O, pH 7.0; MgCl2 in H2O, 200 mM; PM12 Buffer, 10×: 120 mM PIPES (from 200 mM stock), 20 mM MgCl2 (from 200 mM stock); PBS Buffer, 1X: 135 mM NaCl, […], 10 mM Na(PO4)2, 1.8 mM K2(PO4), pH 7.4; EGTA in H2O, 250 mM; CaCl2) in H2O, 500 mM; DTT in H2O, 1 M; BSA in H2O, 10 mg/mL; ATP in 1×PBS, 50 mM; NADH in 1X PM12 and 1 mM DTT, 26 mM; PEP in 1X PM12, 78 mM, pH 7.0.
(§3) Stock Solutions of pCa buffer. Combine PIPES, CaCl2, and EGTA solutions with water. Adjust pH to 7.0 and bring final volume to 100 mL.
(§4) Buffer A & Buffer B. Prepare buffers A and B according to the table below.
(§5) Myofibril ATPase Assay Procedure: BSA, ATP, NADH, PEP, and DTT solutions were thawed at room temperature, then transferred to ice. Pellet-frozen myofibrils were transferred with approximately twice the required volume into a sufficiently large tube and capped. Myofibrils were thawed by rolling in a water bath for approximately 15 min at room temperature and cooled on ice. Buffers A and B were prepared by adjusting volumes as necessary for required number of wells and stored on ice. 0.5 μL of the compounds to be assayed were added into wells. 25 μL of Buffer A was dispensed into the wells, followed by 25 μL of Buffer B. The wells were measured for absorbance at 340 nm, using a kinetic protocol in which the wells are read every 1.5-2 min for 75 min. Assay data analysis was performed using a python script that filtered the raw data to retain those points falling between a starting and ending time and between a maximum and minimum absorbance, then used the filtered time-domain 340 nm absorbance data in each well to calculate a slope via linear regression analysis in units of mAU/min. Compound slopes were normalized between 100% and 0% activity, where 100% represented the slope of wells containing only compound vehicle, and fit to a 4-parameter logistic model. In addition to the fit parameters, the EC25% values were calculated, relative to the 100% normalized value. Additionally, the Y125 values were calculated for compounds that increased myosin ATP-ase activity. Fit parameters, calculated effective concentrations, filtered raw data, and calculated slopes were exported, in addition to compound-specific graphs of normalized ATPase activity versus concentration in μM. Each value reported in Table 8 is either a Y75 value or a Y125 value. Values without pound sign, #, are Y75 values, which reflect the concentration required to reduce myosin ATP-ase activity by 25% (e.g., Y-axis activity value is 75% of initial value), relative to myosin ATP-ase activity in the absence of exogenous compound. […]

[3] = test system: myosin ATPase, Rabbit Psoas myofibrils; assay: Myofibril ATPase assay, rabbit psoas (skeletal) myofibrils; assay type: biochemical; details: Rabbit Psoas Prep pCa 25 GEOM_MEAN; for Rabbit Psoas EC25 (Y75 value): concentration required to reduce myosin ATP-ase activity by 25%; for Rabbit Psoas Y125 value (marked #): concentration required to increase myosin ATP-ase activity by 25%
Description: [Worded in the source for another species; this species is reported under the same test.] as §1, §2, §3, §4, §5

Row | Compound | Porcine Atria EC25 (Y75 value) [1] [µM] | Porcine Ventricle EC25 (Y75 value) [2] [µM] | Rabbit Psoas EC25 (Y75 value) [3] [µM] | Rabbit Psoas Y125 value (marked #) [3] | Porcine Atria Y125 value (marked #) ([1]; concentration required to increase myosin ATP-ase activity by 25%)
1 | C[C@@H](NC(=O)Cn1c(=O)[nH]c2ccccc2c1=O)c1ccc(F)cc1F [Compound 166, (R)-N-(1-(2,4-difluorophenyl)ethyl)-2-(2,4-dioxo-1,4-dihydroquinazolin-3(2H)-yl)acetamide] | 100 | 100 | 100 | – | –
2 | O=C(Cn1c(=O)[nH]c2ccncc2c1=O)N[C@H]1CCc2cc(F)cc(F)c21 (single isomer, unassigned) [Compound 44] | 36.5 | 100 | 1.145 | – | –
3 | C[C@@H](NC(=O)Cn1c(=O)[nH]c2ccc(F)c(F)c2c1=O)c1ccc(C#N)cn1 (single isomer, unassigned) [Compound 17] | 0.427 | 10.16 | 9.016 | – | –
4 | C[C@H](NC(=O)Cn1c(=O)[nH]c2ccc(F)cc2c1=O)c1ccc(F)cc1F [Compound 155, (S)-N-(1-(2,4-difluorophenyl)ethyl)-2-(6-fluoro-2,4-dioxo-1,4-dihydroquinazolin-3(2H)-yl)acetamide] | 0.0623 | 0.1805 | 0.073 | – | –
5 | COc1cccc2[nH]c(=O)n(CC(=O)N[C@@H](C)c3ccc(F)cc3F)c(=O)c12 [Compound 69, (S)-N-(1-(2,4-difluorophenyl)ethyl)-2-(5-methoxy-2,4-dioxo-1,4-dihydroquinazolin-3(2H)-yl)acetamide] | 21.1 | 100 | 1.147 | – | –
6 | CC(NC(=O)Cn1c(=O)[nH]c2ccccc2c1=O)c1ccc(F)cn1 (stereo not drawn) [Compound 106, 2-(2,4-dioxo-1,4-dihydroquinazolin-3(2H)-yl)-N-(1-(5-fluoropyridin-2-yl)ethyl)acetamide] | 100 | 100 | 72.241 | – | –
7 | Cc1cc(C#N)cnc1[C@H](C)NC(=O)Cn1c(=O)[nH]c2ccc(F)c(F)c2c1=O (single isomer, unassigned) [Compound 14] | 5.931 | 23.76 | 21.27 | – | –
8 | C[C@@H](NC(=O)Cn1c(=O)[nH]c2ccc(F)c(F)c2c1=O)c1ncc(C#N)cc1F (single isomer, unassigned) [Compound 21] | 1.799 | 0.615 | 1.66 | – | –
9 | C[C@H](NC(=O)[C@H](C)n1c(=O)[nH]c2ccc(F)cc2c1=O)c1ccc(F)cc1F [Compound 40, (S)-N-((S)-1-(2,4-difluorophenyl)ethyl)-2-(6-fluoro-2,4-dioxo-1,4-dihydroquinazolin-3(2H)-yl)propanamide] | 0.1074 | 6.567 | 0.476 | – | –
10 | C[C@H](NC(=O)Cn1c(=O)[nH]c2ccc(F)cc2c1=O)c1ncc(C#N)cc1F (single isomer, unassigned) [Compound 8] | 0.094 | 0.448 | 0.108 | – | –

The remaining lines, values ahead:

Row | Porcine Atria EC25 (Y75 value) [1] [µM] | Porcine Ventricle EC25 (Y75 value) [2] [µM] | Rabbit Psoas EC25 (Y75 value) [3] [µM] | Rabbit Psoas Y125 value (marked #) [3] | Porcine Atria Y125 value (marked #) ([1]; concentration required to increase myosin ATP-ase activity by 25%) | Compound
11 | 100 | 100 | 100 | – | – | C[C@H](NC(=O)C(c1ccccc1)n1c(=O)[nH]c2ccccc2c1=O)c1ccc(F)cc1F (single isomer, unassigned) [Compound 510]
12 | 0.085 | 0.254 | 0.065 | – | – | C[C@H](NC(=O)Cn1c(=O)[nH]c2cccc(F)c2c1=O)c1ncc(C#N)cc1F (single isomer, unassigned) [Compound 208]
13 | 7.86 | 100 | 16.05 | – | – | CC(NC(=O)Cn1c(=O)[nH]c2ccccc2c1=O)c1ccccc1Cl (stereo not drawn) [Compound 523, N-(1-(2-chlorophenyl)ethyl)-2-(2,4-dioxo-1,4-dihydroquinazolin-3(2H)-yl)acetamide]
14 | 100 | 100 | 100 | – | – | CCC(C(=O)N[C@@H](C)c1ccc(F)cc1F)n1c(=O)[nH]c2ccccc2c1=O (single isomer, unassigned) [Compound 509]
15 | 2.78 | 11.35 | 2.34 | – | – | Cc1c(F)ccc2[nH]c(=O)n(CC(=O)N[C@H](C)c3ncc(C#N)cn3)c(=O)c12 (single isomer, unassigned) [Compound 3005]
16 | 0.445 | 4.63 | 3.24 | – | – | C[C@H](NC(=O)Cn1c(=O)[nH]c2ccccc2c1=O)c1ccc(Cl)cc1 (single isomer, unassigned) [Compound 530]
17 | 12.2 | 100 | – | 100^# ^ μM | – | C[C@H](NC(=O)Cn1c(=O)c2cc(F)ccc2n(C)c1=O)c1ccc(F)cc1F [Compound 404, (S)-N-(1-(2,4-difluorophenyl)ethyl)-2-(6-fluoro-1-methyl-2,4-dioxo-1,4-dihydroquinazolin-3(2H)-yl)acetamide]
18 | 100 | 70.61 | 100 | – | – | C[C@H](NC(=O)Cn1c(=O)[nH]c2cccc(C#N)c2c1=O)c1ncc(C#N)cn1 (single isomer, unassigned) [Compound 204]
19 | 100 | 100 | 100 | – | – | CC(NC(=O)Cn1c(=O)[nH]c2ccccc2c1=O)c1ccncc1 (stereo not drawn) [Compound 213, 2-(2,4-dioxo-1,4-dihydroquinazolin-3(2H)-yl)-N-(1-(pyridin-4-yl)ethyl)acetamide]
20 | 100 | 100 | 100 | – | – | O=C(Cn1c(=O)[nH]c2ccccc2c1=O)NC(c1ccc(Cl)cc1)c1cccs1 (stereo not drawn) [Compound 515, N-((4-chlorophenyl)(thiophen-2-yl)methyl)-2-(2,4-dioxo-1,4-dihydroquinazolin-3(2H)-yl)acetamide]
21 | 100 | 100 | 100 | – | – | C[C@H](NC(=O)[C@@H](CC1CC1)n1c(=O)[nH]c2ccccc2c1=O)c1ncc(F)cc1F (single isomer, unassigned) [Compound 212]
22 | – | 100 | – | 23.575^#^ μM | 30.14^# μM | CC(C)CC(C(=O)N[C@@H](C)c1ccc(F)cc1F)n1c(=O)[nH]c2ccccc2c1=O (single isomer, unassigned) [Compound 512]
